Drawing on BindingDB's records for doi:10.7270/Q2DF6PMF (Nmmlsc, 2007), this text covers IC50 and Ki for 53 compounds.

Molecules are shown by their SMILES.

In this assay the target is T1, N-formyl peptide receptor 2 (Homo sapiens, UniProt P25090).
T1 sequence (P25090 whole entry): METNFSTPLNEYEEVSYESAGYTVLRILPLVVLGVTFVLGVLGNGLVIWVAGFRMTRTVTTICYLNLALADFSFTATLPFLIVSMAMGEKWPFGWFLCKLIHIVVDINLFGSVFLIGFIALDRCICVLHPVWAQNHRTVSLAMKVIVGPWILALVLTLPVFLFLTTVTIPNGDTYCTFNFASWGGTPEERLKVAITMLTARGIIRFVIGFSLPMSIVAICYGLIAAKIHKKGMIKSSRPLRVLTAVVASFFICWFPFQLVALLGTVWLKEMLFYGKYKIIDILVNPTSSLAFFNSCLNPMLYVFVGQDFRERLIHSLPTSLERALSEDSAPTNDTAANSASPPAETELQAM
In words: FPRL1 binding inhibitor potency, dose response, cell-based, FPR counter-screen, fluorescent ligand (AID 520). On the technique in general: The purpose of a counterscreen is to sort out artefacts and off-target activity.

[1] abbreviates: inactive by the depositor's call.

As a reminder, the IC50 is the concentration needed to halve the response being measured. Read a low IC50 as inhibition by little substance. Consider `C=CCn1c(NC(=O)c2ccccc2)c(C#N)c2nc3ccccc3nc21` [MLS000057035], for which the IC50 was greater than 66.7 µM. The compound `O=S(=O)(Nc1cccc2ncccc12)c1cccs1` [MLS000057468] showed an IC50 greater than 66.7 µM. On the same count and under the same terms, under `O=C(NC1CCCC1)C1CC1c1ccccc1` (configuration not stated) [MLS000061073] stands greater than 66.7 µM. Still for that read-out and setting: the result for `COc1ccc(NC(=O)C2C3CCC(C3)C2C(=O)O)cc1OC` (configuration not stated) [MLS000061524] reads greater than 66.7 µM. Same read-out and setting: the result for `Cc1nnc(SCc2cnc(-c3ccccc3)o2)nc1O` [MLS000061907] reads greater than 66.7 µM. Regarding `Cc1cc2oc(C(=O)NC3CCS(=O)(=O)C3)c(C)c2cc1C` (configuration not stated) [MLS000063255], the half-inhibitory concentration (IC50) was greater than 66.7 µM. On the same count and under the same terms, under `CSc1ccccc1NS(=O)(=O)c1ccccc1` [MLS000064343] stands greater than 66.7 µM; under `CC1(C)S[C@@H]2[C@H](NC(=O)Cc3ccccc3)C(=O)N2[C@H]1C(=O)O` [MLS000069426], greater than 66.7 µM; under `CCCCn1c(NC(C)=O)c(C#N)c2nc3ccccc3nc21` [MLS000079917], greater than 66.7 µM.

The compound `CCCCn1c(NC(=O)CC)c(C#N)c2nc3ccccc3nc21` [MLS000079918] returned an IC50 greater than 66.7 µM. Still for that read-out and setting: the result for `CCCC(=O)Nc1c2c(nn1-c1ccc(OC)cc1)C[S+]([O-])C2` (configuration not stated) [MLS000086302] reads greater than 66.7 µM. Under setting [1], `CCOC(=O)N1CCN(c2cc(NCCC(=O)O)c3c4c(onc24)-c2ccccc2C3=O)CC1` [MLS000086406] displayed a half-inhibitory concentration (IC50) of 49.9 µM. As for `COc1ccc(-c2cc(C(F)(F)F)nc(NC3CCCC3)n2)cc1OC` [MLS000086438], the half-maximal inhibitory concentration (IC50) was greater than 66.7 µM. Same read-out and setting: the result for `COC(=O)C1=[N+]([O-])OC(C(=O)OC)C1c1c[nH]c2ccccc12` (configuration not stated) [MLS000090094] reads greater than 66.7 µM; that for `CCOc1ccccc1NC(=O)CSc1nccn1-c1ccccc1` [MLS000090721], greater than 66.7 µM. Take `CC(=O)SCC(=O)N=c1sc2cc(F)ccc2n1C` [MLS000091388]: the half-maximal inhibitory concentration (IC50) is greater than 66.7 µM. `CCSc1nnc(NC(=O)CSc2nnc(Cc3cccn3C)n2CCc2ccccc2)s1` [MLS000092939] returned a half-inhibitory concentration (IC50) greater than 66.7 µM. Turning to `CCOC(=O)c1sc(=S)n2c1[nH]c(=O)c1ccc(C(=O)OC)cc12` [MLS000094734], the IC50 was greater than 66.7 µM.

For `CCC(C)(C(=O)NC1CCCC1)N(CC1CCCO1)C(=O)c1ccc2c(c1)OCO2` (configuration not stated) [MLS000095004], the IC50 is greater than 66.7 µM.

In turn, `Cc1cccc(-n2nc3c(c2NC(=O)c2ccco2)CSC3)c1C` [MLS000095654] showed an IC50 greater than 66.7 µM.

For the compound `Cc1cccc(OCC(=O)Nc2cc(C)ccc2O)c1` [MLS000100112], the IC50 is greater than 66.7 µM. Turning to `COc1ccc(OC)c(NC(=O)C2C3CCC(C3=C(C)C)C2C(=O)O)c1` (configuration not stated) [MLS000110216], the half-maximal inhibitory concentration (IC50) is greater than 66.7 µM. The same measure, in the same setting: the result for `CC(=O)OCCNc1cc(N2CCN(C)CC2)c2noc3c2c1C(=O)c1ccccc1-3` [MLS000118373] reads 6.9 µM; that for `COc1ccc(-n2c(Cc3cccn3C)nnc2SCC(=O)Nc2ccc(Cl)cc2)cc1` [MLS000118695], greater than 66.7 µM; that for `Cc1ccc(NC(=O)C2CCCN2S(=O)(=O)c2cccc3cccnc23)cc1F` (configuration not stated) [MLS000119092], greater than 66.7 µM. Turning to `CCOC(=O)c1cc(NC(=O)C2C3CCC(O3)C2C(=O)O)cc(C(=O)OCC)c1` (configuration not stated) [MLS000521500], the concentration for half-maximal inhibition (IC50) was greater than 66.7 µM. As usually defined, the Ki is the dissociation constant of the complex between target and ligand, obtained from inhibition or displacement. For `O=c1c(C23CC4CC(CC(C4)C2)C3)c(O)n(-c2ccccc2)n1-c1ccccc1` [MLS000526352], the half-inhibitory concentration (IC50) was greater than 66.7 µM and the inhibition constant (Ki) was greater than 40.3 µM. As to `Cc1[nH]n2c(=O)c3c(nc2c1-c1cccc2ccccc12)CCC3` [MLS000530451], the half-maximal inhibitory concentration (IC50) was greater than 66.7 µM. In turn, `Cc1[nH]n2c(=O)cc(-c3ccc([N+](=O)[O-])cc3)nc2c1-c1ccccc1` [MLS000547439] registered a 50% inhibitory concentration (IC50) under setting [1] of 31.7 µM. `CCC(SC1=Nc2ccccc2C2=NC(CC(C)C)C(=O)N12)C(=O)Nc1ccc2c(c1)OCO2` (configuration not stated) [N-(1,3-benzodioxol-5-yl)-2-[[2-(2-methylpropyl)-3-oxo-2H-imidazo[1,2-c]quinazolin-5-yl]sulfanyl]butanamide] had a 50% inhibitory concentration (IC50) greater than 66.7 µM. `COCCN1Cc2cccc(C(=O)NCc3ccc4c(c3)OCO4)c2C1=O` [N-(1,3-benzodioxol-5-ylmethyl)-2-(2-methoxyethyl)-3-oxoisoindoline-4-carboxamide] displayed a 50% inhibitory concentration (IC50) greater than 66.7 µM. In turn, `COc1ccc(NC(=O)C2C(=O)NC3(C)CC2c2ccccc2O3)cc1` (configuration not stated) [N-(4-methoxyphenyl)-2-methyl-4-oxo-3,4,5,6-tetrahydro-2H-2,6-methano-1,3-benzoxazocine-5-carboxamide] showed a concentration for half-maximal inhibition (IC50) greater than 66.7 µM.

For the compound `Cc1cc(NC(=O)CSc2nnc(Cn3c(=O)sc4ccccc43)n2-c2ccccc2C)no1` [N-(5-methyl-3-isoxazolyl)-2-[[4-(2-methylphenyl)-5-[(2-oxo-1,3-benzothiazol-3-yl)methyl]-1,2,4-triazol-3-yl]thio]acetamide], the half-maximal inhibitory concentration (IC50) was greater than 66.7 µM. The same measure, in the same setting: the result for `COc1cc2c3c(c1)/C(=C1/SC(NC(C)=O)=NC1=O)C(=O)N3C(C)(C)C=C2C` [N-[5-(8-methoxy-4,4,6-trimethyl-2-oxo-4H-pyrrolo[3,2,1-ij]quinolin-1(2H)-ylidene)-4-oxo-4,5-dihydro-1,3-thiazol-2-yl]acetamide] reads greater than 66.7 µM. `Cc1ccc(C)c(-n2c(CNC(=O)c3ccco3)nnc2SCC(=O)N2CCc3ccccc32)c1` [N-[[5-[2-(2,3-dihydroindol-1-yl)-2-oxoethyl]sulfanyl-4-(2,5-dimethylphenyl)-1,2,4-triazol-3-yl]methyl]furan-2-carboxamide] had a 50% inhibitory concentration (IC50) greater than 66.7 µM. Same read-out and setting: under `CCCCNC(=O)c1sc(=S)n2c1[nH]c(=O)c1ccccc12` [N-butyl-5-oxo-1-thioxo-4,5-dihydro[1,3]thiazolo[3,4-a]quinazoline-3-carboxamide] stands greater than 66.7 µM. Consider `C[N+]1(C)[C@@H]2CC(OC(=O)[C@H](CO)c3ccccc3)C[C@H]1[C@@H]1O[C@@H]12` (some centres not stated) [SCOPOLAMINE METHYL NITRATE], for which the IC50 is greater than 66.7 µM.

As for `CCc1c(C)nc2c(C#N)c(C)[nH]n2c1=O` [SMR000013340], the IC50 was greater than 66.7 µM. Compound `Cc1ccc(NC(=O)C2C(=O)N(CCO)C3(C)CC2c2ccccc2O3)cc1` (configuration not stated) [SMR000015827] had an IC50 greater than 66.7 µM. `COc1ccccc1-n1c(CNC(=O)c2ccco2)nnc1SCC(=O)Nc1ccc(F)cc1` [SMR000021507] returned an IC50 greater than 66.7 µM.

As to `CCN(CC)c1ccc(C=NC(C#N)C(=N)C#N)cc1` (configuration not stated) [SMR000023871], the IC50 was greater than 66.7 µM and the Ki is greater than 40.3 µM. `COc1cccc(OC)c1C(=O)C(C#N)c1nc2ccccc2[nH]1` (configuration not stated) [SMR000024183] registered an IC50 greater than 66.7 µM and a Ki greater than 40.3 µM.

Compound `O=S(=O)(c1c[nH]cn1)N1CCc2ccccc21` [SMR000026956] registered an IC50 greater than 66.7 µM. On the same count and under the same terms, the result for `CCC(Sc1nc2c(c(=O)[nH]1)CCC2)C(=O)Nc1cccc(OC)c1` (configuration not stated) [SMR000028729] reads greater than 66.7 µM; that for `O=C(NC1CCCCC1)c1sc(=S)n2c1[nH]c(=O)c1ccccc12` [SMR000030293], greater than 66.7 µM; that for `CCC(=O)Nc1c(C#N)c2nc3ccccc3nc2n1-c1ccccc1C` [SMR000039884], greater than 66.7 µM. Still for that read-out and setting: under `Cc1[nH]n2c(=O)c(C#N)c(-c3ccccc3)nc2c1-c1ccccc1` [SMR000047798] stands greater than 66.7 µM; under `CN1C(=O)/C(=C2\SC(=S)N(C(CCC(=O)O)C(=O)O)C2=O)c2ccccc21` (configuration not stated) [SMR000054993], greater than 66.7 µM; under `CCCc1nc2ccccc2c2nc(N)nn12` [SMR000073509], greater than 66.7 µM. In the case of `Cc1[nH]n2c(=O)c3c(nc2c1-c1ccccc1)CCC3` [SMR000082027], the IC50 was greater than 66.7 µM.

On to `COc1ccccc1-c1c(C)oc2cc(OC(=O)c3ccco3)ccc2c1=O` [[3-(2-methoxyphenyl)-2-methyl-4-oxidanylidene-chromen-7-yl] furan-2-carboxylate], for which the concentration for half-maximal inhibition (IC50) was greater than 66.7 µM. Regarding `CCOC(=O)Cc1cc(=O)n2[nH]c(C)c(-c3ccc(Cl)cc3)c2n1` [ethyl 2-[3-(4-chlorophenyl)-2-methyl-7-oxo-1H-pyrazolo[1,5-a]pyrimidin-5-yl]acetate], the half-maximal inhibitory concentration (IC50) was greater than 66.7 µM. For `COC(=O)c1[nH]c(C)c(C(=O)C2C(=O)C(=O)N(CCCN3CCOCC3)C2c2ccccn2)c1C` (configuration not stated) [methyl 4-{[4-hydroxy-1-[3-(4-morpholinyl)propyl]-5-oxo-2-(2-pyridinyl)-2,5-dihydro-1H-pyrrol-3-yl]carbonyl}-3,5-dimethyl-1H-pyrrole-2-carboxylate], the IC50 was greater than 66.7 µM and the Ki is greater than 40.3 µM.
